Like-named read-outs stand apart in the source and are kept apart here.
Tested on: M. tuberculosis
Type: cell-based, Mycobacterium tuberculosis (laboratory strain H37Rv)
Details: for Average % Faster than Control: average of experiments 1 and 2, negative = slower
[1] = crude peptide 10 µg/mL, MGIT, independent experiment 1, Control (TB only) 11.10, inoculum emulsified through G25 needle
[2] = crude peptide 10 µg/mL, MGIT, independent experiment 2, Control (TB only) 9.10, inoculum emulsified through G25 needle

Question: How did the “Time to Positivity (Day.Hours) Experiment 1” value turn out when “Bombolitin V/Bee: naturally occurring peptide, APD3, bee (INVLGILGLLGKALSHL)” was run?
Answer: 10.22 Day.Hours

Question: And the “Time to Positivity (Day.Hours) Experiment 2” value?
Answer: 8.13 Day.Hours

Question: And the “Average % Faster than Control” value (crude peptide 10 µg/mL)?
Answer: 6.8%

Question: With “CM15/Bee venom: peptide from APD3, bee venom (KWKLFKKIGAVLKVL)” as the substance, how does the “Time to Positivity (Day.Hours) Experiment 1” value read?
Answer: 10.19 Day.Hours

Question: What about the “Time to Positivity (Day.Hours) Experiment 2” value of the same substance?
Answer: 8.01 Day.Hours

Question: What about the “Average % Faster than Control” value (crude peptide 10 µg/mL) of the same substance?
Answer: 10.0%

Question: Which results are given for “Eumenitin/Wasp: naturally occurring peptide, APD3, wasp (LNLKGIFKKVASLLT)”?
Answer: Time to Positivity (Day.Hours) Experiment 1: 11.00 Day.Hours; Time to Positivity (Day.Hours) Experiment 2: 8.08 Day.Hours; Average % Faster than Control (crude peptide 10 µg/mL): 7.6%

Question: With “FFGSVLKLIPKIL [Temporin-PTa/Frog, naturally occurring peptide, APD3, frog]” as the substance, how does the “Time to Positivity (Day.Hours) Experiment 1” value [1] read?
Answer: 11.07 Day.Hours

Question: What about the “Time to Positivity (Day.Hours) Experiment 2” value [2] of the same substance?
Answer: 8.08 Day.Hours

Question: And the “Average % Faster than Control” value (crude peptide 10 µg/mL)?
Answer: 6.3%

Question: With “FFHHIFRGIVHVGKTI [Piscidin 1/Fish *, fragment of naturally occurring peptide, APD3, fish]” as the substance, how does the “Time to Positivity (Day.Hours) Experiment 1” value [1] read?
Answer: 10.18 Day.Hours

Question: And the “Time to Positivity (Day.Hours) Experiment 2” value [2]?
Answer: 8.12 Day.Hours

Question: And the “Average % Faster than Control” value (crude peptide 10 µg/mL)?
Answer: 7.8%

Question: With FFIYVWRRR [P8/Designed *] as the substance, how does the “Time to Positivity (Day.Hours) Experiment 1” value read?
Answer: 11.16 Day.Hours

Question: What about the “Time to Positivity (Day.Hours) Experiment 2” value of the same substance?
Answer: 8.22 Day.Hours

Question: And the “Average % Faster than Control” value (crude peptide 10 µg/mL)?
Answer: 1.6%

Question: FFPFLLGALGSLLPKIF [Temporin-SN1/Frog] was tested. Which “Time to Positivity (Day.Hours) Experiment 1” value did it give?
Answer: 10.22 Day.Hours

Question: And the “Time to Positivity (Day.Hours) Experiment 2” value?
Answer: 8.23 Day.Hours

Question: What about the “Average % Faster than Control” value (crude peptide 10 µg/mL) of the same substance?
Answer: 4.6%

Question: For FFPYAALKWLRKLLKK [P-04/Tunicate], which “Time to Positivity (Day.Hours) Experiment 1” value is on record?
Answer: 11.02 Day.Hours

Question: What about the “Time to Positivity (Day.Hours) Experiment 2” value of the same substance?
Answer: 8.08 Day.Hours

Question: What about the “Average % Faster than Control” value (crude peptide 10 µg/mL) of the same substance?
Answer: 7.2%

Question: For FGKILGVGKKVLCGLS [Odorranain-H1/Frog *], which “Time to Positivity (Day.Hours) Experiment 1” value is on record?
Answer: 10.19 Day.Hours

Question: And the “Time to Positivity (Day.Hours) Experiment 2” value?
Answer: 8.03 Day.Hours

Question: What about the “Average % Faster than Control” value (crude peptide 10 µg/mL) of the same substance?
Answer: 9.6%

Question: How did the “Time to Positivity (Day.Hours) Experiment 1” value turn out when “FIFIRWLLKLGHHGRA [Salusin-beta/Scorpion *]” was run?
Answer: 10.18 Day.Hours

Question: What about the “Time to Positivity (Day.Hours) Experiment 2” value of the same substance?
Answer: 8.03 Day.Hours

Question: What about the “Average % Faster than Control” value (crude peptide 10 µg/mL) of the same substance?
Answer: 9.8%

Question: FIITGLVRGLTKLF [Temporin-LTb/Frog] was tested. Which “Time to Positivity (Day.Hours) Experiment 1” value did it give?
Answer: 11.07 Day.Hours

Question: And the “Time to Positivity (Day.Hours) Experiment 2” value?
Answer: 8.06 Day.Hours

Question: What about the “Average % Faster than Control” value (crude peptide 10 µg/mL) of the same substance?
Answer: 6.7%

Question: How did the “Time to Positivity (Day.Hours) Experiment 1” value turn out when FITLLLRKFICSITKKC [Brevinin-1Ta/Frog] was run?
Answer: 11.07 Day.Hours

Question: What about the “Time to Positivity (Day.Hours) Experiment 2” value of the same substance?
Answer: 8.05 Day.Hours

Question: And the “Average % Faster than Control” value (crude peptide 10 µg/mL)?
Answer: 7.0%

Question: For FLGALAKIISGIF [Temporin-1TSa/Frog], which “Time to Positivity (Day.Hours) Experiment 1” value is on record?
Answer: 11.00 Day.Hours

Question: What about the “Time to Positivity (Day.Hours) Experiment 2” value of the same substance?
Answer: 8.02 Day.Hours

Question: What about the “Average % Faster than Control” value (crude peptide 10 µg/mL) of the same substance?
Answer: 8.9%

Question: Which “Time to Positivity (Day.Hours) Experiment 1” value does the source give for FLGVVFKLASKVFPAV [D28/Designed *] here?
Answer: 11.02 Day.Hours

Question: What about the “Time to Positivity (Day.Hours) Experiment 2” value of the same substance?
Answer: 8.09 Day.Hours

Question: What about the “Average % Faster than Control” value (crude peptide 10 µg/mL) of the same substance?
Answer: 7.0%

Question: How did the “Time to Positivity (Day.Hours) Experiment 1” value turn out when FLPLFASLIGKLL [Temporin-1Cb/Frog] was run?
Answer: 11.08 Day.Hours

Question: What about the “Time to Positivity (Day.Hours) Experiment 2” value of the same substance?
Answer: 8.06 Day.Hours

Question: And the “Average % Faster than Control” value (crude peptide 10 µg/mL)?
Answer: 6.6%

Question: What does the source list for FLPLIAGLIGKLF [Peptide B9/Frog]?
Answer: Time to Positivity (Day.Hours) Experiment 1: 10.19 Day.Hours; Time to Positivity (Day.Hours) Experiment 2: 8.01 Day.Hours; Average % Faster than Control (crude peptide 10 µg/mL): 10.0%

Question: “FLPLIGRVLSGIL [Temporin A/Frog, naturally occurring peptide, APD3, frog]” was tested. Which “Time to Positivity (Day.Hours) Experiment 1” value [1] did it give?
Answer: 11.02 Day.Hours

Question: What about the “Time to Positivity (Day.Hours) Experiment 2” value [2] of the same substance?
Answer: 9.00 Day.Hours

Question: And the “Average % Faster than Control” value (crude peptide 10 µg/mL)?
Answer: 3.7%

Question: Which results are given for “FLPLLASLFSRLF [Temporin-1Oc/Frog, naturally occurring peptide, APD3, frog]”?
Answer: Time to Positivity (Day.Hours) Experiment 1 [1]: 11.10 Day.Hours; Time to Positivity (Day.Hours) Experiment 2 [2]: 8.17 Day.Hours; Average % Faster than Control (crude peptide 10 µg/mL): 3.8%

Question: FLPLVTMLLGKLF [Temporin-1Vc/Frog] was tested. Which “Time to Positivity (Day.Hours) Experiment 1” value did it give?
Answer: 11.12 Day.Hours

Question: What about the “Time to Positivity (Day.Hours) Experiment 2” value of the same substance?
Answer: 8.21 Day.Hours

Question: And the “Average % Faster than Control” value (crude peptide 10 µg/mL)?
Answer: 2.5%

Question: FLSIIAKVLGSLF [Temporin 1Vb/Frog] was tested. Which “Time to Positivity (Day.Hours) Experiment 1” value did it give?
Answer: 11.10 Day.Hours

Question: What about the “Time to Positivity (Day.Hours) Experiment 2” value of the same substance?
Answer: 8.08 Day.Hours

Question: What about the “Average % Faster than Control” value (crude peptide 10 µg/mL) of the same substance?
Answer: 5.8%

Question: What does the source list for FLSLIPSLVGGSISAFK [TsAP-1/Scorpion]?
Answer: Time to Positivity (Day.Hours) Experiment 1: 11.07 Day.Hours; Time to Positivity (Day.Hours) Experiment 2: 8.05 Day.Hours; Average % Faster than Control (crude peptide 10 µg/mL): 7.0%

Question: What does the source list for FLSTIWNGIKSLL [Pantinin-3/Scorpion]?
Answer: Time to Positivity (Day.Hours) Experiment 1: 11.08 Day.Hours; Time to Positivity (Day.Hours) Experiment 2: 8.23 Day.Hours; Average % Faster than Control (crude peptide 10 µg/mL): 2.8%

Question: With FVQWFSKFLGRIL [Temporin L/Frog] as the substance, how does the “Time to Positivity (Day.Hours) Experiment 1” value read?
Answer: 11.06 Day.Hours

Question: What about the “Time to Positivity (Day.Hours) Experiment 2” value of the same substance?
Answer: 8.05 Day.Hours

Question: What about the “Average % Faster than Control” value (crude peptide 10 µg/mL) of the same substance?
Answer: 7.1%

Question: With GAILPLALGALKNLIK [Hylin a1/Frog] as the substance, how does the “Time to Positivity (Day.Hours) Experiment 1” value read?
Answer: 11.14 Day.Hours

Question: What about the “Time to Positivity (Day.Hours) Experiment 2” value of the same substance?
Answer: 8.02 Day.Hours

Question: What about the “Average % Faster than Control” value (crude peptide 10 µg/mL) of the same substance?
Answer: 6.3%

Question: For GFGMALKLLKKVL [Macropin 1/Wasp], which “Time to Positivity (Day.Hours) Experiment 1” value is on record?
Answer: 10.12 Day.Hours

Question: What about the “Time to Positivity (Day.Hours) Experiment 2” value of the same substance?
Answer: 8.07 Day.Hours

Question: What about the “Average % Faster than Control” value (crude peptide 10 µg/mL) of the same substance?
Answer: 10.0%

Question: Which “Time to Positivity (Day.Hours) Experiment 1” value does the source give for GFKRIVQRIKDFLRNLV [GF-17/Human *] here?
Answer: 10.02 Day.Hours

Question: What about the “Time to Positivity (Day.Hours) Experiment 2” value of the same substance?
Answer: 8.07 Day.Hours

Question: What about the “Average % Faster than Control” value (crude peptide 10 µg/mL) of the same substance?
Answer: 11.8%

Question: For GFWGKLFKLGLHGIGL [NRC-15/Flounder], which “Time to Positivity (Day.Hours) Experiment 1” value is on record?
Answer: 11.02 Day.Hours

Question: What about the “Time to Positivity (Day.Hours) Experiment 2” value of the same substance?
Answer: 8.14 Day.Hours

Question: And the “Average % Faster than Control” value (crude peptide 10 µg/mL)?
Answer: 5.9%

Question: GLGSLVGNALRIGAKLL [CPF-AM4/Frog] was tested. Which “Time to Positivity (Day.Hours) Experiment 1” value did it give?
Answer: 10.17 Day.Hours

Question: What about the “Time to Positivity (Day.Hours) Experiment 2” value of the same substance?
Answer: 8.06 Day.Hours

Question: What about the “Average % Faster than Control” value (crude peptide 10 µg/mL) of the same substance?
Answer: 9.3%

Question: For GRLCYCRGWICFCVGR [Protegrin 4/Pig *], which “Time to Positivity (Day.Hours) Experiment 1” value is on record?
Answer: 11.11 Day.Hours

Question: And the “Time to Positivity (Day.Hours) Experiment 2” value?
Answer: 8.01 Day.Hours

Question: What about the “Average % Faster than Control” value (crude peptide 10 µg/mL) of the same substance?
Answer: 7.1%
